The values that follow come from US8546443B2, “Benzylic oxindole pyrimidines” (Boehringer Ingelheim International GmbH, priority 2010, dated 2013).

T1 sequence (P08069 964-1367 limits assumed): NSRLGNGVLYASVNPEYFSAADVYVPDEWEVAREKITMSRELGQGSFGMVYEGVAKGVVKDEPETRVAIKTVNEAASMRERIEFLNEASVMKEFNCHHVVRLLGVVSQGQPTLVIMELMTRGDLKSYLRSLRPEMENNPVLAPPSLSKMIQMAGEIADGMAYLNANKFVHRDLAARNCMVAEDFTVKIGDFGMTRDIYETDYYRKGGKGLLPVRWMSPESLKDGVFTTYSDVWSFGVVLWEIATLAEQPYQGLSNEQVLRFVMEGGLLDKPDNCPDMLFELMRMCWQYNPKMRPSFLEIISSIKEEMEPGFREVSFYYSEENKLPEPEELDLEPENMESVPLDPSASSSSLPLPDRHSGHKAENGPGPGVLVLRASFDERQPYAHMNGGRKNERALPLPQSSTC

The assay addresses T1, cytoplasmic kinase domain of human IGF-1R (IGF-1R-GST) (Homo sapiens, UniProt P08069).
T1 construct: cytoplasmic kinase domain of human IGF-1R (amino acids 964-1370); GST (glutathione-S-transferase); made in house; host or cells: High Five insect cells (Invitrogen)
Put plainly: Insulin-like growth factor-1 receptor (IGF-1R) kinase assay (DELFIA). It is filed as biochemical. The note with it: IGF-1R-GST kinase activity, read-out: IGF1R IC50. Here is the method: Insulin-Like Growth Factor-1 Receptor (IGF-1R)-Kinase Assay
The kinase activity is measured by DELFIA® assay (dissociation-enhanced lanthanide fluorescence immunoassay, Perkin Elmer). […] Enzyme activity is measured in the presence of substances and a control substance. Poly-glutamate-tyrosine peptide (pEY, Sigma Aldrich) and biotinylated pEY (bio-pEY) are used as reaction substrates.
After 40 min at RT the reactions are stopped with 50 μL of stop solution (250 mM EDTA, 20 mM HEPES pH 7.4). 90 μL from each reaction are transferred onto streptavidin-coated 96-well plates. After 120 min incubation at RT the plates are washed three times with 200 μL phosphate-buffered saline (PBS) per well. The plates are incubated for 60 min with 100 μL of europium-coupled antibody against phospho-tyrosine (diluted 1/2000 in Perkin Elmer DELFIA assay buffer) per well. The plates are washed three times with 200 μL per well of DELFIA washing buffer. 100 μL DELFIA Enhancement Solution (Perkin Elmer) is added to each well, and the plates are incubated for 10 min. The fluorescence signal is measured with a Wallac Victor TRF Reader. IC50 values for the inhibition of the IGF-1R-kinase activity are calculated using the programmes Fifty (Version 2) and GraphPad (Version 3.0).
In general, IC50 refers to the concentration that inhibits the measured activity by half. On to `CCOc1cc(N2CCN(CC)CC2)ccc1Nc1ncc(C(F)(F)F)c(NCc2cccc3c2C(C)(C)C(=O)N3)n1` [Example I-144], for which the IC50 came to 0.81 nM.
Take `CCOc1cc(N2CCN(C3CCN(C)CC3)CC2)ccc1Nc1ncc(C(F)(F)F)c(NCc2cccc3c2C(C)(C)C(=O)N3)n1` [Example I-145]: the IC50 is 0.67 nM.
`CCOc1cc(N2CCN(C3COC3)CC2)ccc1Nc1ncc(C(F)(F)F)c(NCc2cccc3c2C(C)(C)C(=O)N3)n1` [Example I-146]: the IC50 stood at 4 nM.
On to `COc1cc(N2CC3CC2CN3C2CCN(C)CC2)ccc1Nc1ncc(C(F)(F)F)c(NCc2cccc3c2C(C)(C)C(=O)N3)n1` (stereo not drawn) [Example I-147], for which the IC50 is 5 nM.
Under `COc1cc(N2CC3CC2CN3C2CCC2)ccc1Nc1ncc(C(F)(F)F)c(NCc2cccc3c2C(C)(C)C(=O)N3)n1` (stereo not drawn) [Example I-148] stands 3 nM.
Consider `COc1cc(N2CC3CC2CN3CC2CC2)ccc1Nc1ncc(C(F)(F)F)c(NCc2cccc3c2C(C)(C)C(=O)N3)n1` (stereo not drawn) [Example I-149], for which the IC50 was 2 nM.
Under `COc1cc(N2CC3CC2CN3C2CCOCC2)ccc1Nc1ncc(C(F)(F)F)c(NCc2cccc3c2C(C)(C)C(=O)N3)n1` (stereo not drawn) [Example I-150] stands 3 nM; under `COc1cc(N2CC3CC2CN3C)ccc1Nc1ncc(C(F)(F)F)c(NCc2cccc3c2C(C)(C)C(=O)N3)n1` (stereo not drawn) [Example I-151], 2 nM; under `COc1cc(N2CC3CC2CN3C(C)C)ccc1Nc1ncc(C(F)(F)F)c(NCc2cccc3c2C(C)(C)C(=O)N3)n1` (stereo not drawn) [Example I-152], 3 nM.
For the compound `CCN1CC2CC1CN2c1ccc(Nc2ncc(C(F)(F)F)c(NCc3cccc4c3C(C)(C)C(=O)N4)n2)c(OC)c1` (stereo not drawn) [Example I-153], the IC50 was 2 nM.
Under `COc1cc(N2CC3CC2CN3C2COC2)ccc1Nc1ncc(C(F)(F)F)c(NCc2cccc3c2C(C)(C)C(=O)N3)n1` (stereo not drawn) [Example I-154] stands 13 nM.
Consider `COc1cc(N2CCN(C3CCC3)CC2)ccc1Nc1ncc(C(F)(F)F)c(NCc2cccc3c2C(C)(C)C(=O)N3)n1` [Example I-155], for which the IC50 worked out at 1 nM.
Under `COc1cc(N2CCN(C3COC3)CC2)ccc1Nc1ncc(C(F)(F)F)c(NCc2cccc3c2C(C)(C)C(=O)N3)n1` [Example I-156] stands 4 nM; under `CCN1CCN(c2ccc(Nc3ncc(C(F)(F)F)c(NCc4cccc5c4C(C)(C)C(=O)N5)n3)c(OC)c2)CC1` [Example I-157], 0.61 nM.
Regarding `COc1cc(N2CCN(C3CCN(C(C)=O)CC3)CC2)ccc1Nc1ncc(C(F)(F)F)c(NCc2cccc3c2C(C)(C)C(=O)N3)n1` [Example I-158], the IC50 amounted to 2 nM.
Turning to `COc1cc(C2CCN(C(C)C)CC2)ccc1Nc1ncc(C(F)(F)F)c(NCc2cccc3c2C(C)(C)C(=O)N3)n1` [Example I-159], the IC50 is 0.41 nM.
As for `CN1CCC(c2ccc(Nc3ncc(Cl)c(NCc4cccc5c4C4(CC4)C(=O)N5)n3)cc2)CC1` [Example I-161], the IC50 amounted to 0.96 nM.
Under `COc1cc(N2CCN(CC3CC3)CC2)ccc1Nc1ncc(C(F)(F)F)c(NCc2cccc3c2C(C)(C)C(=O)N3)n1` [Example I-162] stands 2 nM; under `CCOC(=O)N1CCC(N2CCN(c3ccc(Nc4ncc(C(F)(F)F)c(NCc5cccc6c5C(C)(C)C(=O)N6)n4)c(OC)c3)CC2)CC1` [Example I-163], 10 nM; under `COc1cc(N2CCN(Cc3ccco3)CC2)ccc1Nc1ncc(C(F)(F)F)c(NCc2cccc3c2C(C)(C)C(=O)N3)n1` [Example I-164], 14 nM.
Turning to `COc1cc(N2CCN(CC3CC3)CC2)ccc1Nc1ncc(C(F)(F)F)c(NCc2cccc3c2CC(=O)N3)n1` [Example I-165], the IC50 amounted to 4 nM.
Under `CCOC(=O)N1CCC(N2CCN(c3ccc(Nc4ncc(C(F)(F)F)c(NCc5cccc6c5CC(=O)N6)n4)c(OC)c3)CC2)CC1` [Example I-166] stands 11 nM.
With `COCCNC1CCN(c2ccc(Nc3ncc(C(F)(F)F)c(NCc4cccc5c4C(C)(C)C(=O)N5)n3)c(OC)c2)CC1` [Example I-167], the IC50 stood at 0.2 nM.
Consider `COCCCN(C)C1CCN(c2ccc(Nc3ncc(C(F)(F)F)c(NCc4cccc5c4C(C)(C)C(=O)N5)n3)c(OC)c2)CC1` [Example I-168], for which the IC50 stood at 0.2 nM.
Then `COc1cc(N2CCC(N(C)CCO)CC2)ccc1Nc1ncc(C(F)(F)F)c(NCc2cccc3c2C(C)(C)C(=O)N3)n1` [Example I-169], with 0.26 nM; and `COc1cc(N2CCC(N3CCC(OC)CC3)CC2)ccc1Nc1ncc(C(F)(F)F)c(NCc2cccc3c2C(C)(C)C(=O)N3)n1` [Example I-170], with 0.33 nM.
With `COc1cc(N2CCC(N3CCOCC3)CC2)ccc1Nc1ncc(C(F)(F)F)c(NCc2cccc3c2C(C)(C)C(=O)N3)n1` [Example I-171], the IC50 amounted to 0.38 nM.
Turning to `COc1cc(N2CCC(N3CC[C@H](O)C3)CC2)ccc1Nc1ncc(C(F)(F)F)c(NCc2cccc3c2C(C)(C)C(=O)N3)n1` [Example I-172], the IC50 came to 0.4 nM.
As for `COc1cc(N2CCC(NCC(C)(C)OC)CC2)ccc1Nc1ncc(C(F)(F)F)c(NCc2cccc3c2C(C)(C)C(=O)N3)n1` [Example I-173], the IC50 was 0.46 nM.
For the compound `COc1cc(N2CCC(N3CC[C@@H](O)C3)CC2)ccc1Nc1ncc(C(F)(F)F)c(NCc2cccc3c2C(C)(C)C(=O)N3)n1` [Example I-174], the IC50 worked out at 0.81 nM.
Regarding `COCCN(C)C1CCN(c2ccc(Nc3ncc(C(F)(F)F)c(NCc4cccc5c4C(C)(C)C(=O)N5)n3)c(OC)c2)CC1` [Example I-175], the half-inhibitory concentration (IC50) stood at 0.87 nM.
`COc1cc(N2CCC(N3CCC3)CC2)ccc1Nc1ncc(C(F)(F)F)c(NCc2cccc3c2C(C)(C)C(=O)N3)n1` [Example I-176]: the IC50 came out at 0.98 nM.
For `COc1cc(N2CCC(N3CCC(O)CC3)CC2)ccc1Nc1ncc(C(F)(F)F)c(NCc2cccc3c2C(C)(C)C(=O)N3)n1` [Example I-177], the IC50 turned out to be 1 nM.
For the compound `COc1cc(N2CCC(N(C)CCN(C)C)CC2)ccc1Nc1ncc(C(F)(F)F)c(NCc2cccc3c2CC(=O)N3)n1` [Example I-178], the IC50 stood at 2 nM.
As for `COCCNC1CCN(c2ccc(Nc3ncc(C(F)(F)F)c(NCc4cccc5c4CC(=O)N5)n3)c(OC)c2)CC1` [Example I-179], the IC50 was 2 nM.
Under `COc1cc(N2CCC(N3CCCC3)CC2)ccc1Nc1ncc(C(F)(F)F)c(NCc2cccc3c2C(C)(C)C(=O)N3)n1` [Example I-180] stands 2 nM.
`COc1cc(N2CCC(N(C)C)CC2)ccc1Nc1ncc(C(F)(F)F)c(NCc2cccc3c2C(C)(C)C(=O)N3)n1` [Example I-181]: the IC50 turned out to be 2 nM.
Then `COc1cc(N2CCC(N3CCC(N(C)C)CC3)CC2)ccc1Nc1ncc(C(F)(F)F)c(NCc2cccc3c2CC(=O)N3)n1` [Example I-182], with 3 nM; and `COc1cc(N2CCC(NCCCN(C)C)CC2)ccc1Nc1ncc(C(F)(F)F)c(NCc2cccc3c2CC(=O)N3)n1` [Example I-183], with 3 nM; and `COc1cc(N2CCC(N(C)C)CC2)ccc1Nc1ncc(C(F)(F)F)c(NCc2cccc3c2CC(=O)N3)n1` [Example I-184], with 4 nM.
Turning to `COc1cc(N2CCC(N(C)CCCN(C)C)CC2)ccc1Nc1ncc(C(F)(F)F)c(NCc2cccc3c2CC(=O)N3)n1` [Example I-185], the IC50 was found to be 4 nM.
Turning to `COc1cc(N2CCC(N(C)CCO)CC2)ccc1Nc1ncc(C(F)(F)F)c(NCc2cccc3c2CC(=O)N3)n1` [Example I-186], the IC50 came out at 4 nM.
